Test results from patent US20090118310A1, “Activated Cdc42-associated kinase (ACK) as a therapeutic target for Ras-induced cancer” (UNIVERSITY OF MEDICINE AND DENTISTRY OF NEW JERSEY, priority 2005, published 2009).
d = 2'-deoxy (DNA); r = 2'-OH (RNA)

What was measured:
parental NIH 3T3 cells = test: Growth of parental NIH 3T3 cells after siRNA transfection (cell counting); format: cell-based; conditions: FIG. 2D; counted every 24 hours
Experimental: (§1) A pair of cRNA primers of 21 nucleotides (Dharmacon Research, Inc., Lafayette, Co.) corresponding to the 5′ noncoding of the ACK-1 cDNA (5′-CAUUACCCGCCUAUCUCAUdTdT-3′ and 5′-AUGAGAUAGGCGGGUAAUGdTdT-3′) were annealed to form siRNA (a 19-nucleotide duplex stem with two-nucleotide overhangs on either side) according to the instructions provided by the manufacturer. v-Ha-Ras-transformed or parental NIH 3T3 cells were seeded into 6- or 24-well plates and incubated overnight. The annealed double-stranded ACK siRNA (0.16, 0.4, or 0.8 nmol/L in DMEM) or the sense strand oligonucleotide of ACK siRNA (0.8 nmol/L) was complexed with Cellfectin. siRNA:Cellfectin complexes were added to the serum-free medium and incubated for 3 hours. Cells were then replenished with medium containing 10% FCS and incubated for another 21 hours or as indicated elsewhere. Cells were collected and counted using a hemocytometer; alternatively, cell lysates were prepared for Western blotting. Western blotting was done using ACK-1 antibodies. […]
(§2) After transfection with siRNA at different concentrations (in nmol/L), v-Ha-Ras transformed and parental NIH 3T3 cells were trypsinized and collected every 24 hours. Cell numbers were counted in triplicate.

[1] = system: v-Ha-Ras-transformed NIH 3T3 cells; test: Induction of apoptosis in v-Ha-Ras-transformed cells (PARP and ICAD cleavage, cytochrome c release, DNA fragmentation); format: cell-based; conditions: PARP cleavage, ICAD cleavage, chromosomal DNA fragmentation, FIGS. 3A-D
Experimental: (§3) v-Ras-transformed cells (1×10^5) were seeded in a 35 mm dish and incubated under standard cell culture conditions overnight. Cells in DMEM were treated with Cellfectin, the sense strand of the siRNA:Cellfectin complex or the siRNA:Cellfectin complex for 3 hours. The medium was then replaced with DMEM containing 10% FCS and incubated for 21 hours at 37° C. Cells were harvested and used for Western blotting with specific antibodies or for cell cycle or caspase activation assays. For cell cycle and caspase activation assays, cells were resuspended in PBS containing FITC-VAD-fmk for 10 minutes at room temperature. The cells were then fixed with ice-cold 70% ethanol for 30 minutes at 4° C. Following a rinse with PBS, the cells were resuspended in PBS containing RNase (0.1 mg/mL) and then stained with propidium iodine (10 μg/mL) for 10 minutes at room temperature. Cellular fluorescence from a sample of 15,000 cells was analyzed using a Coulter EPICS Profile II Flow Cytometer (Coulter Electronics, Miami, Fla.). Fluorescence excited at 488 nm was detected using a 525±20 band pass filter. Histograms were analyzed using EPICS Workstation Software (version 4).
v-Ras-transformed cells (5×10^5) were seeded in 35 mm dishes and incubated overnight under standard cell culture conditions. […]

[2] = system: v-Ha-Ras-transformed NIH 3T3 cells; test: Growth of v-Ha-Ras-transformed cells after siRNA transfection (cell counting); format: cell-based; conditions: FIG. 2C; counted every 24 hours
Experimental: as §1, §2

[3] = system: v-Ha-Ras-transformed cells; test: Cell cycle analysis of v-Ha-Ras-transformed cells by flow cytometry; format: cell-based; conditions: data not shown
Experimental: as §3

ACK-1 = ACK-1 protein level after siRNA transfection (Western blot); format: cell-based
Experimental: as §1
After 24 hours of transfection, cells were collected and lysed with Laemmli SDS sample buffer. Proteins were separated by SDS-PAGE and the level of ACK-1 protein was determined by Western blotting using antibodies against ACK-1. […]

[4] = target: T1, ACK-1 kinase (GST-ACKD, amino acids 101-441) (Homo sapiens, UniProt Q07912); test: In vitro kinase assay of GST-ACKD with MBP as substrate; format: biochemical; conditions: FIG. 4C dose response, FIG. 4D inhibitors at 200 nmol/L
T1 construct: made in house; host or cells: Escherichia coli BL21 (pGEX-2TH vector)
T1 sequence (Q07912 38-378 H250G): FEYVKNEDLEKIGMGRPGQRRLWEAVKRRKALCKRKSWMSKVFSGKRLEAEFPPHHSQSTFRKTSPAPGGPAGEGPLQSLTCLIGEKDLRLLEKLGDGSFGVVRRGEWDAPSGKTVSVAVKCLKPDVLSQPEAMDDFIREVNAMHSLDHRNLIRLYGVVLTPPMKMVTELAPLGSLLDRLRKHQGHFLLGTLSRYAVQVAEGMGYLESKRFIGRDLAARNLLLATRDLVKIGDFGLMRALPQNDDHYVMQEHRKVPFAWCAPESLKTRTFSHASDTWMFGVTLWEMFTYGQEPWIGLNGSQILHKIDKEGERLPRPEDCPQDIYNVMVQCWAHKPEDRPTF
Experimental: Escherichia coli BL21 cells transformed with pGEX-ACKD were grown at 30° C. to early logarithmic phase and protein expression was induced by adding 0.1 mmol/L isopropyl-L-thio-β-D-galactopyranoside. After 3 hours of incubation, cells were harvested, resuspended in lysis buffer [50 mmol/L Tris (pH 7.5), 0.73 mol/L sucrose, 5 mmol/L MgCl2, 0.5% (v/v) NP40], and disrupted by sonication. Cells were centrifuged at 10,000×g for 30 minutes at 4° C. The supernatant was applied to the glutathione-Sepharose column equilibrated with WED buffer [20 mmol/L Tris (pH 7.5), 2 mmol/L MgCl2, 1 mmol/L DTT] followed by washing with WED buffer. GST-ACKD was eluted with 5 mmol/L glutathione solution in 50 mmol/L Tris (pH 9.6). The eluate was dialyzed in WED buffer overnight and concentrated on a sucrose gradient. The expected size of the fusion protein (GST-ACKD) was confirmed by SDS-PAGE (data not shown), and the protein was used for kinase assays as described below.
The purified GST-ACKD (˜5 μg per reaction) was incubated in kinase reaction buffer [50 mmol/L HEPES-KOH (pH 7.2), 10 mmol/L magnesium acetate, 5 mmol/L DTT] containing 7.5 μg MBP, 100 μmol/L ATP, and 4 μCi [γ-^33P]ATP for 10 minutes at 30° C. Reactions were stopped by addition of 5× Laemmli SDS sample buffer. Proteins were separated by SDS-PAGE, and radioactivity incorporated into the substrate was quantified by using the Kodak Imaging Station 2000R. For kinase inhibition experiments, GST-ACKD was preincubated with individual inhibitors in kinase buffer or kinase buffer alone (control) before the addition of MBP following the same protocol as described above. Experiments were done in triplicate.
Several compounds were screened to examine their potency in inhibiting the kinase activity of ACK in vitro. […]
Different kinase inhibitors were added to the ACK-1 kinase reaction as described above in General Procedures. Phosphorylation of MBP was determined by SDS-PAGE and autoradiography. The level of MBP phosphorylation was determined by scanning MBP bands using Kodak Imaging Station 2000R and plotted as arbitrary units. […]

| Molecule | growth of parental NIH 3T3 cells after transfection (parental NIH 3T3 cells) | induction of apoptosis (apoptosis markers) [1] | growth of v-Ha-Ras-transformed cells after transfection [2] | cell cycle arrest [3] | level of ACK-1 at 0.8 nmol/L siRNA (ACK-1; 0.8 nmol/L, v-Ha-Ras-transformed and parental NIH 3T3 cells) | expression of ACK-1 (ACK-1; siRNA 0.16, 0.4 or 0.8 nmol/L, 24 hours, FIGS. 2A and B) | inhibition of kinase activity of ACK (MBP phosphorylation) [4] |
| --- | --- | --- | --- | --- | --- | --- | --- |
| ACK-1 siRNA: annealed 21-nt pair 5′-CAUUACCCGCCUAUCUCAUdTdT-3′ / 5′-AUGAGAUAGGCGGGUAAUGdTdT-3′ corresponding to the 5′ noncoding of ACK-1 cDNA (chain 1 CAUUACCCGCCUAUCUCAUTT; chain 2 AUGAGAUAGGCGGGUAAUGTT; sugars from the 5' end r19 d2, backbone not given here) | did not affect the growth of parental NIH 3T3 cells | induced apoptosis | inhibited the growth of v-Ha-Ras-transformed cells in a dose dependent manner | did not block v-Ha-Ras-transformed cells at any particular stage of the cell cycle | reduced the level of ACK-1 significantly | reduced the expression of ACK-1 in a dose-dependent manner |  |
| O=c1c(-c2ccc(O)cc2)coc2cc(O)cc(O)c12 [genistein] |  |  |  |  |  |  | very weak activity |
| O=c1c(O)c(-c2ccc(O)c(O)c2)oc2cc(O)cc(O)c12 [quercetin] |  |  |  |  |  |  | very weak activity |
